Like-named read-outs stand apart in the source and are kept apart here.
Tests used:
[1] = test system: HL-60 cells with a mutated RARα gene; assay: MTS cell viability assay, retinoic acid-resistant HL60R cells; type: cell-based
Experimental: These cells are resistant to retinoic acid-induced expression of the CD38 antigen due to a point mutation in the retinoic acid receptor alpha (RARα) gene. The cell line was cultured with increasing concentrations of immunotoxin (in ng/ml) under different conditions.
HL-60 cells with a mutated RARα gene that renders the cells resistant to the effects of retinoic acid were treated with immunotoxin in either the presence or absence of 5 nM retinoic acid.

CD38 = CD38 expression in tumor cells by flow cytometry after RA treatment; type: cell-based; details: 5 nM RA
Experimental: Table I lists the potential targets for anti-CD38 bound toxin treatment A number of different lymphoid tumor cell lines were treated with 5 nM all-trans-retinoic acid (RA). Afterwards, the expression of CD38 in untreated versus treated cell was measured by flow cytometry. […] The increase in CD38 expression ranges from 2.5 to 20 fold. Thus, retinoic acid can be used in all of these tumor types to increase the vulnerability of the tumor cells to immunotoxin treatment.

[2] = test system: myeloid and lymphoid leukemia cells; details: retinoic acid 10^−13 M; cited from earlier work
HL-60 cells = assay: MTS cell viability assay, HL-60 cells; type: cell-based; details: 3 days, presence or absence of 5 nM retinoic acid
Experimental: HL-60 cells were incubated with either immunotoxin alone or in the presence of 5 nM retinoic acid (RA). Increasing concentrations of unconjugated IB4 monoclonal antibody were added to the cells incubated with immunotoxin and retinoic acid. After three days, the cells were assayed for viability with the MTS assay. Briefly, 6.5 mg/ml MTS solution [(3-(4,5-dimethylthiazol-2-yl)-5-(3-carboxymethoxyphenyl)-2-(4-sulfophenyl)-2H-tetrazolium] and 0.5 mM PMS (phenazine methosulfate) solution were mixed at a ratio of 20:1. 20 μl of the combined MTS/PMS solution was placed in each well of a 96 well plate containing samples of the cells to be tested. The plate was incubated for 1–4 hours at 37° C. in a 5% CO2 atmosphere, after which time, the amount of formazan produced by live cells from cellular reduction of MTS was measured by reading the absorbance at 490 nm. The results are shown in FIG. 2.
HL-60 cells were preincubated overnight in either the presence or absence of 5 nM all-trans-retinoic acid. The cells were washed twice and incubated in increasing concentrations of immunotoxin in either the presence or absence of IB4 unconjugated anti-CD38 MoAb. After three days, the cell were assayed for viability.
HL-60 cells were incubated for three days with increasing concentrations of either immunotoxin or gelonin in either the presence or absence of 5 nM retinoic acid. […]

Row | Compound | cell death (MTS) [1] | CD38 after RA treatment (CD38; AML cells) | CD38 after RA treatment (CD38; APL cells) | CD38 after RA treatment (CD38; Lymphomas) | CD38 after RA treatment (CD38; Myelomas) | induction of CD38 cell surface antigen expression [2] [fold] | toxic effect (MTS cell viability) (HL-60 cells) | cell death (MTS) ([1]; HL60R (mutated RARα), 3 days)
1 | CC1=C(/C=C/C(C)=C/C=C/C(C)=C/C(=O)O)C(C)(C)CCC1 [RA, all-trans-retinoic acid] | no appreciable cell death | 180 ± 20 | 120 ± 30 | 210 ± 10 | 180 ± 25 | 4 |  | 
2 | gelonin |  |  |  |  |  |  | no toxic effect | no appreciable cell death

Reference: patent US7223397B1, “Potentiation of anti-CD38-Immunotoxin cytotoxicity” (priority 1999, dated 2007)
